From paper PMC5488091, “Tellurite and Tellurate Reduction by the Aerobic Anoxygenic Phototroph Erythromonas ursincola, Strain KR99 Is Carried out by a Novel Membrane Associated Enzyme” (Microorganisms, 2017)
Read-outs that look alike come from different tables or passages of the source.

Key:
[1] = tested on: T1, tellurite reductase (membrane associated tellurite/tellurate reductase); assay type: biochemical, Blastomonas ursincola; details: co-substrate NADH (25 µL of 5 mM stock as printed), Tris HCl pH 7.0, 28 °C
T1 construct: native enzyme purified from Triton X-100 solubilised membranes of KR99; 117 kDa heterodimer (62 + 55 kDa, 1:1); MS nearest match GroEL of Blastomonas sp

[2] = biological target: tellurite reductase 55 kDa subunit of Erythromonas ursincola, strain KR99 (Erythromonas ursincola, strain KR99 (endogenous)); experiment: SEC; endogenous enzyme co-purified from solubilised membranes; single band on 5% native PAGE; native mass by Superdex S-200 gel filtration in 20 mM Tris HCl pH 8.0; subunits by SDS-PAGE (12%) after boiling in 1% SDS with 2-mercaptoethanol
[3] = tested on: T1, tellurite reductase (membrane associated tellurite/tellurate reductase); experiment: spectrophotometric tellurite reduction at […] nm; assay type: biochemical, Blastomonas ursincola; details: electron donor; co-substrate tellurite; pH 7.0, 28 °C

O=[Te](=O)(O)O [tellurate]
Km ([1]; tellurate 0–5 mM): 1440 µM

tellurite reductase 62 kDa subunit of Erythromonas ursincola, strain KR99 (natural protein)
stoichiometry N [2]: 1

O=[Te](O)O [tellurite]
Km ([1]; tellurite 0–13 mM): 3360 µM

NC(=O)C1=CN([C@@H]2O[C@H](COP(=O)(O)OP(=O)(O)OC[C@H]3O[C@@H](n4cnc5c(N)ncnc54)[C@H](O)[C@@H]3O)[C@@H](O)[C@H]2O)C=CC1 [NADH]
Km [3]: 81.5 µM
